Experimental data published in patent US11697852B2, “Systems and methods for determining a treatment course of action” (The Regents of the University of Michigan, priority 2013, dated 2023).
Entries after “also recorded” stand apart in the source; their conditions may differ.

What was measured:
[1] = test system: ESR1 mutations p.Leu536Gln, p.Tyr537Ser, p.Asp538Gly, p.Tyr537Cys, p.Tyr537Asn; assay: ERE-luciferase reporter assay, ESR1 LBD mutants; type: cell-based, human; settings: for inhibition of the 5 LBD mutations of ESR1 (reporter activity): ERE-luciferase, increasing doses with 5 nM β-estradiol for 24 hrs (FIG. 4)
Procedure: (§1) cDNA for the wild type ESR1 was PCR amplified from a breast cell line MCF7 with the introduction of an N-terminal FLAG tag. cDNA encoding the relevant mutations of ESR1 were generated by site-directed mutagenesis (QuikChange, Agilent) and full-length constructs were fully sequenced. All the ESR1 variants were placed in the Lentivial vector pCDH (System Biosciences) for eukaryotic expression.
(§2) For cell transfection experiments, HEK-293T cells were plated at a density of 1−2×10^5 per well (24-well plates) in phenol red-free Dulbecco's modified Eagle's medium (DMEM) containing 10% fetal bovine serum (FBS) and antibiotics. Once cells attached, replaced medium with DMEM containing 10% charcoal-dextran treated FBS (HyClone) and cultured overnight. The next day, cells were transiently co-transfected with ESR1-expression plasmid at 50 ng/well and luciferase reporter constructs at 25 ng per well (SABiosciences) using the FuGene 6 reagent (Promega). The ER-responsive luciferase plasmid encoding the firefly luciferase reporter gene is driven by a minimal CMV promoter and tandem repeats of the estrogen transcriptional response element (ERE). A second plasmid constitutively expressing Renilla luciferase is served as an internal control for normalizing transfection efficiencies (Cignal ERE Reporter, SABiosciences). After transfection for 18 hrs, cells were serum-starved for a few hours before treatment with 13-estradiol or anti-estrogen drugs. Cells were harvested 18 hr post-treatment, and luciferase activity was measured using the Dual-Luciferase Reporter Assay System (Promega). IC50 values were computed using the GraphPad Prizm application to fit a four parameter doseresponse curve.
It was next assessed whether tumor types other than ER positive metastatic hormone-resistant breast cancer also acquire ligand binding mutations in ESR1. The Cancer Genome Atlas Project (TCGA), which has generated whole exome data on 27 tumor types across at least 4000 individual samples was utilized. […] Steroid hormone deprived cells were then exposed to β-estradiol for 24 hours and ER reporter levels assessed.

[2] = molecular target: T1, wild type ESR1 (Homo sapiens, UniProt P03372); assay: ERE-luciferase reporter assay, wild type ESR1; type: cell-based; settings: HEK-293T cells co-transfected with ESR1 plasmid 50 ng and ERE-luciferase; in presence of β-estradiol (FIGS. 4, 8, 9, 10)
T1 construct: expressed in transfected cells; host or cells: HEK-293T
T1 sequence (P03372 1-595): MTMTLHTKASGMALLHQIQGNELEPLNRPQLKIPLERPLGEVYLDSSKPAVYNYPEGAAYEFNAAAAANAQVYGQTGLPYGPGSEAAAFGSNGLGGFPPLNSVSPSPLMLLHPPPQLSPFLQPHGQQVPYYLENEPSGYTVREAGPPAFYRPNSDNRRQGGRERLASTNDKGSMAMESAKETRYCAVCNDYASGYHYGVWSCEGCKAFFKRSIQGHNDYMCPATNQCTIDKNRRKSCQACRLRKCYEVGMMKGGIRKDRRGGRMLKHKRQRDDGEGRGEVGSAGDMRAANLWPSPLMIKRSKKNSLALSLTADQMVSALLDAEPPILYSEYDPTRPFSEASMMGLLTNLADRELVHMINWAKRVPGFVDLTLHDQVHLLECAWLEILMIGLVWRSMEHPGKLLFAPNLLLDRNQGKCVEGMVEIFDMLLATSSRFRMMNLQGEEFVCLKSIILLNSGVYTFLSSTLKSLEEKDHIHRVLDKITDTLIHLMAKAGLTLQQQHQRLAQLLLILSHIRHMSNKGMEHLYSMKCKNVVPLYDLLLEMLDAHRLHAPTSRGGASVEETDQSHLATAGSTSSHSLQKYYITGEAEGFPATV
Excerpt: as §1
as §2, with “Once” for “For cell transfection experiments, HEK-293T cells were plated at a density of 1−2×10^5 per well (24-well plates) in phenol red-free Dulbecco's modified Eagle's medium (DMEM) containing 10% fetal bovine serum (FBS) and antibiotics. Once”, “IC50 values were computed using the GraphPad Prizm application to fit a four parameter doseresponse curve.” left out

inhibition of wild-type ER reporter (transactivation) activity [2]	Compound	maximal inhibition for all the mutants tested ([1]; ERE-luciferase dose response in competition with 1 nM estradiol (FIGS. 8 and 9))	inhibition of the 5 LBD mutations of ESR1 (reporter activity) [1]
	C[C@]12CC[C@@H]3c4ccc(O)cc4C[C@@H](CCCCCCCCC[S+]([O-])CCCC(F)(F)C(F)(F)F)[C@H]3[C@@H]1CC[C@@H]2O (stereo partly shown) [fulvestrant, Fulvestrant]	greater maximal inhibition than 4-hydroxytamoxifen	in a dose-dependent fashion; also recorded: continue to be responsive
	CC/C(=C(\c1ccccc1)c1ccc(OCCN(C)C)cc1)c1ccccc1 [tamoxifen]		in a dose-dependent fashion; also recorded: continue to be responsive
inhibited in a dose-dependent fashion	(Z)-4-Hydroxytamoxifen		
